One molecule from ChEMBL document CHEMBL2029331, “Red fluorescent scaffold for highly sensitive protease activity probes” (Bioorg Med Chem Lett, 2012) can be followed below.

Active and inactive are the calls of the source. The calls are words filed in the database; no cut-off is given here.

The target in test [1] is Leucyl-cystinyl aminopeptidase (Homo sapiens) (UniProt Q9UIQ6). Kind of test: Activity of leucine aminopeptidase after 2.5 hrs by spectrophotometry.
Test [2] concerns the target T1, Caspase-3 (Homo sapiens) (UniProt P42574).
T1 sequence (whole entry): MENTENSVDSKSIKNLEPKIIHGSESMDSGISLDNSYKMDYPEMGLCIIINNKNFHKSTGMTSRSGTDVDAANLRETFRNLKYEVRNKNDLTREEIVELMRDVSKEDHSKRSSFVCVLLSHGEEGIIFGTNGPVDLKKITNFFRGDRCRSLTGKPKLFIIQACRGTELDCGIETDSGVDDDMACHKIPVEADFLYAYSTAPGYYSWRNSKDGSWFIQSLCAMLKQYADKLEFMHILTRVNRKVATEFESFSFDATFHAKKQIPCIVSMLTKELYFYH
In words: Activity of caspase3 assessed as SiR600 release by measuring increase in fluorescence intensity at 2 uM after 10 hrs by FRET assay relative to control.

Test [3] addresses T1, Caspase-3 (Homo sapiens). In words: Activity of caspase3 assessed as Kcat/Km ratio after 10 hrs by spectrophotometry relative to Ac-DEVD-AMC.

Leucyl-cystinyl aminopeptidase (Homo sapiens), sequence (Q9UIQ6 whole entry): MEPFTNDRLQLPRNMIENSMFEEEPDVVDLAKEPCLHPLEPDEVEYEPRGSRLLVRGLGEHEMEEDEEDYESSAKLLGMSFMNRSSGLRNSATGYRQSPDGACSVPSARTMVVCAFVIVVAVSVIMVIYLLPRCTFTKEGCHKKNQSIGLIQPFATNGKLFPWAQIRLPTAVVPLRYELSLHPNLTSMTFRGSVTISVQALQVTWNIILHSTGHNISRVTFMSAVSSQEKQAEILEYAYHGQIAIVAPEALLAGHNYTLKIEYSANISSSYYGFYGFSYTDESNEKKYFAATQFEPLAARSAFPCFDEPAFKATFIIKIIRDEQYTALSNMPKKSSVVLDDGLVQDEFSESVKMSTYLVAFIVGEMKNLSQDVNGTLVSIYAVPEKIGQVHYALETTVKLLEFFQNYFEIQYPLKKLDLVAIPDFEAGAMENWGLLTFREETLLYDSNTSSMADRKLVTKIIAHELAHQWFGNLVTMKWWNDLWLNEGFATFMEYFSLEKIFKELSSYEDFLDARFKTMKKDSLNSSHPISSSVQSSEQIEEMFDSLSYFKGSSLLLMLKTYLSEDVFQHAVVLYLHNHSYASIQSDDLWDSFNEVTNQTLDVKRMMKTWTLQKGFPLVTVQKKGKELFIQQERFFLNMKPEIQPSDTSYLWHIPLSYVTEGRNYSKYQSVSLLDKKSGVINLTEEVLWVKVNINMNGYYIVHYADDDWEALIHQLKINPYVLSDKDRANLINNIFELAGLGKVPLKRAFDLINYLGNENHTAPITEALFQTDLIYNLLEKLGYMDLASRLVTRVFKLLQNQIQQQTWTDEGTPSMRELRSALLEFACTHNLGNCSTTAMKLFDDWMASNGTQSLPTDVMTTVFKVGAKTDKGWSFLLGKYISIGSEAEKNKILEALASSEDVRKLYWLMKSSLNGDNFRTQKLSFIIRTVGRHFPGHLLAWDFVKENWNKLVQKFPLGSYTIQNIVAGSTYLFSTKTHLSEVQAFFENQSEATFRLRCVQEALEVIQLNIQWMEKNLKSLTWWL

On to `Cc1ccccc1C1=C2C=CC(=N)C=C2[Si](C)(C)c2cc(NC(=O)[C@H](CC(=O)O)NC(=O)[C@@H](NC(=O)[C@H](CCC(=O)O)NC(=O)[C@H](CC(=O)O)NC(=O)OCc3ccccc3)C(C)C)ccc21`, for which, in test [1], the outcome was Active. Moreover, the fold change (FC) at Caspase-3 (Homo sapiens) [2] was determined as 432; at Caspase-3 (Homo sapiens) [3], 40.
